# Source: PMC4865847, “Putative histidine kinase inhibitors with antibacterial effect against multi-drug resistant clinical isolates identified by in vitro and in silico screens” (Scientific Reports, 2016)
# Like-named read-outs stand apart in the source and are kept apart here.
# Key:
# Hemolysis assay = format: cell-based; settings: human
# Method: Hemolytic activity against human erythrocytes taken from a healthy donor was measured as previously described. The hemolysis experiments were carried out in accordance with the guidelines of the United Arab Emirates University (UAEU) Research Ethics Review Board. All experimental protocols were approved by the Research Ethics Review Board of UAEU and informed consent was obtained from all donors.
# Pseudomonas aeruginosa = experiment: Antibacterial susceptibility testing (MIC), P. aeruginosa; format: cell-based; settings: Pseudomonas aeruginosa, ATCC27853; strain ATCC 27853
# Method: (§1) Bacterial strains used in this study for antibacterial susceptibility testing (Table S5) were propagated using standard microbiological procedures. Minimal inhibitory concentrations (MICs) were determined following a standard double-dilution method. MICs were recorded as the lowest concentration of the compound where no visible growth was observed. After plating the dilutions around the MIC or growing them in fresh MH media, minimal bactericidal concentration (MBC) was recorded as the lowest concentration of the compound at which no colonies were formed or no growth was observed, respectively. For S. pneumoniae MICs were determined by adapting the standard double-dilution method to anaerobic conditions and of this microorganism (use of Todd Hewitt Yeast extract with 200 U/mL of catalase and continuous monitoring of growth).
# Acinetobacter baumannii = experiment: Antibacterial susceptibility testing (MIC), A. baumannii; format: cell-based
# Method: as §1
# Streptococcus suis = experiment: Antibacterial susceptibility testing (MIC), S. suis; format: cell-based; settings: for MIC: Streptococcus suis, read-out: MIC Streptococcus suis 3881/S10, strain 3881/S10
# Method: as §1
# Streptococcus pneumoniae = experiment: Antibacterial susceptibility testing (MIC), S. pneumoniae; format: cell-based; settings: strain 49619
# Method: as §1
# E. coli PhoR (PhoR^E) = molecular target: T1, E. coli PhoR (PhoR^E) (Escherichia coli, UniProt P08400); experiment: In vitro autophosphorylation kinase assay with γ-32P-ATP, PhoR^E; format: biochemical; settings: autophosphorylation, one time point (30 sec), 10% DMSO
# T1 construct: The catalytic portion (DHp and CA domain) of E. coli PhoR (PhoR^E); made in house; host or cells: E. coli RIL
# How it was run: (§2)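 Histidine kinase (0.12 mg/ml, ≈4 μM) incubated with up to 20 mM fragment in 50 mM Tris HCl pH 8.5, 50 mM KCl, 5 mM MgCl2, 0.5 mM EDTA, 0.1 mM DTT; started with 0.1 μCi/μl γ-32P-ATP (0.03–0.06 μM ATP final). Phosphoprotein quantified by SDS-PAGE and phosphor-imaging, curve-fitted; DMSO controls.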
# Klebsiella pneumoniae = experiment: Antibacterial susceptibility testing (MIC), K. pneumoniae; format: cell-based; settings: Klebsiella pneumoniae, ATCC700603, strain ATCC 700603
# Method: as §1
# [1] = test system: Staphylococcus epidermidis; experiment: Antibacterial susceptibility testing (MIC/MBC), S. epidermidis; format: cell-based; settings: for MBC / MIC: Staphylococcus epidermidis
# Method: (§3) Minimal inhibitory concentrations (MICs) were determined following a standard double-dilution method. […] For S. pneumoniae MICs were determined by adapting the standard double-dilution method to anaerobic conditions and of this microorganism (use of Todd Hewitt Yeast extract with 200 U/mL of catalase and continuous monitoring of growth).
# Escherichia coli = experiment: Antibacterial susceptibility testing (MIC/MBC), E. coli; format: cell-based; settings: Escherichia coli
# Method: as §3
# [2] = test system: Stenotrophomonas maltophilia; experiment: Antibacterial susceptibility testing (MIC), S. maltophilia; format: cell-based
# Method: as §1
# Staphylococcus aureus = experiment: Antibacterial susceptibility testing (MIC/MBC), S. aureus; format: cell-based; settings: Staphylococcus aureus; for MBC: DSM20231, strain DSM 20231, read-out: MBC S. aureus DSM 20231
# Method: as §3
# S. pneumoniae WalK = molecular target: T2, S. pneumoniae WalK (Streptococcus pneumoniae, UniProt Q8DPL8); experiment: In vitro autophosphorylation kinase assay with γ-32P-ATP, WalK; format: biochemical; settings: autophosphorylation, one time point (30 sec), 10% DMSO
# T2 construct: WalK (amino acids from 208 to 449); N-terminal His6-3C site of vector pOPINF (own knowledge of the vector); made in house; host or cells: E. coli RIL
# How it was run: as §2
# [3] = MDR clinical isolate NM8, read-out: MIC A. baumannii NM8
# [4] = strain RP62A (biofilm producer), read-out: MIC S. epidermidis RP62A
# [5] = ATCC25276, strain ATCC 25276, read-out: MIC E. coli ATCC 25276
# [6] = strain CFT 073, read-out: MIC E. coli CFT 073
# [7] = clinical isolate B32/1, read-out: MIC S. maltophilia B32/1
# [8] = ATCC reference strain 25293, read-out: MIC S. aureus 25293
# [9] = MRSA clinical isolate 127/08, read-out: MIC S. aureus 127/08
# [10] = MRSA clinical isolate 145/08, read-out: MIC S. aureus 145/08
# [11] = MRSA clinical isolate 274/08, read-out: MIC S. aureus 274/08
# [12] = MRSA, MRSA clinical isolate S908, read-out: MIC S. aureus S908
# [13] = MRSA, MRSA clinical isolate T4/6, read-out: MIC S. aureus T4/6
# [14] = MRSA, MRSA clinical isolate V4180, read-out: MIC S. aureus V4180
# [15] = MRSA, summary over strains, read-out: MICs for the MRSA strains and S. aureus 25293
# T2 sequence (Q8DPL8 208-449): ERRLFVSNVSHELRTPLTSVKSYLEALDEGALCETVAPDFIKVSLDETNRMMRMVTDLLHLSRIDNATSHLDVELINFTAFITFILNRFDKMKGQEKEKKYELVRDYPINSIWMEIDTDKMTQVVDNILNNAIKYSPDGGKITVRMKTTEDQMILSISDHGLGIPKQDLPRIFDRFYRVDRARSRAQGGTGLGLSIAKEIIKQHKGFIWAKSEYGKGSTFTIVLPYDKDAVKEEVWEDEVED
# T1 sequence (P08400 210-425): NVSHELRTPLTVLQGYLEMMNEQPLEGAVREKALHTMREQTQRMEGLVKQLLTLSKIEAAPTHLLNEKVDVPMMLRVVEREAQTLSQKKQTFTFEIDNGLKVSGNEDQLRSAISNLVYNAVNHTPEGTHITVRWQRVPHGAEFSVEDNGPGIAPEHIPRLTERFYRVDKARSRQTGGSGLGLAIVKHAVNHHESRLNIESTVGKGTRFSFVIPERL
structure (smiles),measurement,setting,value
NCCc1ccc2c(c1)[nH]c1ccccc12 [F2.3],HC50,"Hemolysis assay; erythrocytes from a healthy donor, up to 500 μg/ml, three independent incubations, read-out: LC50 hemolysis",> 500 µg/mL
same,MIC,Pseudomonas aeruginosa,> 500 µg/mL
same,MIC,Acinetobacter baumannii; [3],> 500 µg/mL
same,MIC,Streptococcus suis,> 500 µg/mL
same,MIC,Streptococcus pneumoniae,4 µg/mL
same,IC50,E. coli PhoR (PhoR^E); IC50 PhoR^E,> 2 mM
same,MIC,Klebsiella pneumoniae,> 500 µg/mL
same,MBC,"[1]; DSM20044, strain DSM 20044",63 µg/mL
same,MIC,"[1]; DSM20044, strain DSM 20044, read-out: MIC S. epidermidis DSM 20044",31 to 500 µg/mL
same,MIC,"[1]; clinical isolate T7/3, read-out: MIC S. epidermidis T7/3",31 µg/mL
same,MIC,"[1]; clinical isolate T37/8, read-out: MIC S. epidermidis T37/8",125 µg/mL
same,MIC,"[1]; clinical isolate T6119, read-out: MIC S. epidermidis T6119",125 µg/mL
same,MIC,[1]; [4],125 µg/mL
same,MIC,"[1]; strain RP62A/1 (non-biofilm producer), read-out: MIC S. epidermidis RP62A/1",125 µg/mL
same,MIC,"[1]; summary over strains, read-out: MICs for the S. epidermidis strains",31 to 250 µg/mL
same,MIC S. epidermidis DSM 20044,[1]; strain DSM 20044,31 µg/mL
same,MIC,Escherichia coli; [5],> 500 µg/mL
same,MIC,Escherichia coli; [6],> 500 µg/mL
same,MIC,[2]; [7],> 500 µg/mL
same,MIC,Staphylococcus aureus; [8],125 µg/mL
same,MBC,Staphylococcus aureus,> 500 µg/mL
same,MIC,Staphylococcus aureus; [9],250 µg/mL
same,MIC,Staphylococcus aureus; [10],250 µg/mL
same,MIC,Staphylococcus aureus; [11],> 500 µg/mL
same,MIC,Staphylococcus aureus; [12],250 µg/mL
same,MIC,Staphylococcus aureus; [13],250 µg/mL
same,MIC,Staphylococcus aureus; [14],250 µg/mL
same,MIC,Staphylococcus aureus; [15],125 to 500 µg/mL
same,IC50,S. pneumoniae WalK; IC50 WalK,> 2 mM
CC(C)NCC(O)COc1cccc2[nH]c3ccccc3c12 (stereo not shown) [F2.4],HC50,Hemolysis assay,> 500 µg/mL
same,MIC,Pseudomonas aeruginosa,> 500 µg/mL
same,MIC,Acinetobacter baumannii; [3],500 µg/mL
same,MIC,"Acinetobacter baumannii; MDR clinical isolate NM35, read-out: MIC A. baumannii NM35",> 500 µg/mL
same,MIC,"Acinetobacter baumannii; MDR clinical isolate NM75, read-out: MIC A. baumannii NM75",> 500 µg/mL
same,MIC,"Acinetobacter baumannii; MDR clinical isolate NM109, read-out: MIC A. baumannii NM109",500 µg/mL
same,MIC,"Acinetobacter baumannii; MDR clinical isolate NM124, read-out: MIC A. baumannii NM124",500 µg/mL
same,MIC,"Acinetobacter baumannii; summary over strains, read-out: MICs for A. baumannii strains",500 µg/mL
same,MIC,Streptococcus suis,125 µg/mL
same,MIC Streptococcus suis 3881/S10,Streptococcus suis; strain 3881/S10,250 µg/mL
same,MIC,Streptococcus pneumoniae,64 µg/mL
same,IC50,E. coli PhoR (PhoR^E); read-out: IC50 PhoR^E,> 2 mM
same,MIC,Klebsiella pneumoniae,> 500 µg/mL
same,MBC,"[1]; DSM20044, strain DSM 20044",500 µg/mL
same,MIC,[1]; [4],> 500 µg/mL
same,MIC,Escherichia coli; [5],500 µg/mL
same,MBC,"Escherichia coli; strain CFT 073, read-out: MBC E. coli CFT 073",500 µg/mL
same,MIC,Escherichia coli; [6],500 µg/mL
same,MIC,"[2]; clinical isolate B5/5, read-out: MIC S. maltophilia B5/5",> 500 µg/mL
same,MIC,"[2]; clinical isolate B6/2, read-out: MIC S. maltophilia B6/2",500 µg/mL
same,MIC,[2]; [7],500 µg/mL
same,MIC,"[2]; summary over strains, read-out: MICs for S. maltophilia strains",500 µg/mL
same,MIC,Staphylococcus aureus; [8],125 µg/mL
same,MBC,Staphylococcus aureus,250 µg/mL
same,MIC,Staphylococcus aureus; [9],500 µg/mL
same,MIC,Staphylococcus aureus; [10],250 µg/mL
same,MIC,Staphylococcus aureus; [11],500 µg/mL
same,MIC,Staphylococcus aureus; [12],500 µg/mL
same,MIC,Staphylococcus aureus; [13],> 500 µg/mL
same,MIC,Staphylococcus aureus; [14],500 µg/mL
same,MIC,Staphylococcus aureus; [15],125 to 500 µg/mL
same,IC50,S. pneumoniae WalK; read-out: IC50 WalK,> 2 mM
